Measured values from paper PMC9305538 (Chembiochem, 2022).
Like-named read-outs stand apart in the source and are kept apart here.

Tests used:
FDHC23S+AzoRo [1] = conditions: 150 μM NADH; 50 μM FMN; 50 mM phosphate pH 7; 25 °C; apparent; AzoRo part
FDHC23S+AzoRo [2] = conditions: 150 μM NADH; 50 μM FMN; 50 mM phosphate pH 7; 25 °C; apparent; AzoRo part; remark: listed apart in the source
FDHC23S+AzoRo [3] = conditions: 1 mM NAD+; 50 mM phosphate pH 7; 25 °C; apparent; FDH part

CN(C)c1ccc(/N=N/c2ccccc2C(=O)O)cc1 [compound 1, methyl red]
Km (FDHC23S+AzoRo [1]): 73.9 ± 47.5 µM

CC(=O)Nc1ccc(S(=O)(=O)O)c2cc(S(=O)(=O)O)c(N=Nc3ccc(N=Nc4ccc(S(=O)(=O)O)cc4)c4ccc(S(=O)(=O)O)cc34)c(O)c12 [compound 5, Brilliant Black BN]
Km (FDHC23S+AzoRo [2]): 6.01 ± 1.39 µM

O=CO [Formate]
Km (FDHC23S+AzoRo [3]): 48900 ± 4880 µM
